Laboratory results: US8178523B2, “Compounds for the treatment of hepatitis C” (Bristol-Myers Squibb Company, priority 2008, dated 2012)

Assays:
HCV replicon cells = test: HCV replicon FRET / luciferase assay; type: cell-based; conditions: Hepatitis C virus, 50% reduction in FRET or luciferase activity
Description: FRET Assay Preparation. The HCV FRET screening assay was performed in 96-well cell culture plates. The FRET peptide (Anaspec, Inc.) (Taliani et al., Anal. Biochem. 1996, 240, 60-67) contains a fluorescence donor, EDANS, near one end of the peptide and an acceptor, DABCYL, near the other end. The fluorescence of the peptide is quenched by […] resonance energy transfer (RET) between the donor and the acceptor, but as the NS3 protease cleaves the peptide the products are released from RET quenching and the fluorescence of the donor becomes apparent. The assay reagent was made as follows: 5× cell Luciferase cell culture lysis reagent from Promega (#E153A) diluted to 1× with dH2O, NaCl added to 150 mM final, the FRET peptide diluted to 20 μM final from a 2 mM stock.
To prepare plates, HCV replicon cells, with or without a Renilla luciferase reporter gene, were trypsinized and plated in a 96-well plate with titrated test compounds added in columns 3 through 12; columns 1 and 2 contained a control compound (HCV control inhibitor), and the bottom row contained cells with DMSO only. The plates were then placed in a CO2 incubator at 37° C.
Assays. Subsequent to addition of the test compounds described above (FRET Assay Preparation), at various times the plate was removed and Alamar blue solution (Trek Diagnostics, #00-100) was added to measure cellular toxicity. After reading in a Cytoflour 4000 instrument (PE Biosystems), plates were rinsed with PBS and then used for FRET assay by the addition of 30 ul of the FRET peptide assay reagent described above (FRET Assay Preparation) per well. The plate was then placed into the Cytoflour 4000 instrument which had been set to 340 excite/490 emission, automatic mode for up to 20 cycles and the plate read in a kinetic mode. Typically, the signal to noise using an endpoint analysis after the reads was at least three-fold. Alternatively, after Alamar blue reading, plates were rinsed with PBS, then used for luciferase assay using the Promega Dual-Glo Luciferase Assay System or the Promega EnduRen Live Cell Substrate assay.
Compound analysis was performed by quantification of the relative HCV replicon inhibition and the relative cytotoxicity values. To calculate cytoxicity values, the average Alamar Blue fluorescence signals from the control wells were set as 100% non-toxic. The individual signals in each of the compound test wells were then divided by the average control signal and multiplied by 100% to determine […]. To calculate the HCV replicon inhibition values, an average background value was obtained from the two wells containing the highest amount of HCV control inhibitor at the end of the assay period. These numbers were similar to those obtained from naïve Huh-7 cells. The background numbers were then subtracted from the average signal obtained from the control wells and this number was used as 100% activity. The individual signals in each of the compound test wells were then divided by the averaged control values after background subtraction and multiplied by 100% to determine percent activity. EC50 values were calculated as the concentration which caused a 50% reduction in FRET or luciferase activity. The two numbers generated for the compound plate, percent cytoxicity and percent activity, were used to determine compounds of interest for further analysis.

HCV NS5B RdRp = molecular target: T1, HCV NS5B RdRp (Hepatitis C virus genotype 1b, UniProt Q9WMX2); test: HCV NS5B RdRp enzyme assay; type: biochemical; conditions: HCV NS5B genotype 1b, standard or modified RdRp assay not given
T1 construct: The protein was expressed with an 18 amino acid C-terminal truncation to enhance the solubility; made in house; host or cells: E. coli BL21(DE3)
Description: HCV NS5B RdRp cloning, expression, and purification. The cDNA encoding the NS5B protein of HCV, genotype 1b, was cloned into the pET21a expression vector. The protein was expressed with an 18 amino acid C-terminal truncation to enhance the solubility. The E. coli competent cell line BL21(DE3) was used for expression of the protein. Cultures were grown at 37° C. for ˜4 hours until the cultures reached an optical density of 2.0 at 600 nm. The cultures were cooled to 20° C. and induced with 1 mM […]. Fresh ampicillin was added to a final concentration of 50 μg/ml and the cells were grown overnight at 20° C.
Cell pellets (3 L) were lysed for purification to yield 15-24 mgs of purified NS5B. The lysis buffer consisted of 20 mM Tris-HCl, pH 7.4, 500 mM NaCl, 0.5% triton X-100, 1 mM DTT, 1 mM EDTA, 20% glycerol, 0.5 mg/ml lysozyme, 10 mM MgCl2, 15 ug/ml deoxyribonuclease I, and Complete TM protease inhibitor tablets (Roche). After addition of the lysis buffer, frozen cell pellets were resuspended using a tissue homogenizer. To reduce the viscosity of the sample, aliquots of the lysate were sonicated on ice using a microtip attached to a Branson sonicator. The sonicated lysate was centrifuged at 100,000×g for 1 hr at 4° C. and filtered through a 0.2 μm filter unit (Corning).
The protein was purified using two sequential chromatography steps: Heparin sepharose CL-6B and polyU sepharose 4B (Pharmacia). The chromatography buffers were identical to the lysis buffer but contained no lysozyme, deoxyribonuclease I, MgCl2 or protease inhibitor and the NaCl concentration of the buffer was adjusted according to the requirements for charging the protein onto the column. Each column was eluted with a NaCl gradient which varied in length from 5-50 column volumes depending on the column type. After the final chromatography step, the resulting purity of the enzyme is >90% based on SDS-PAGE analysis. The enzyme was aliquoted and stored at −80° C.
Standard HCV NS5B RdRp enzyme assay. HCV RdRp genotype 1b assays were run in a final volume of 60 μl in 96 well plates (Corning 3600). The assay buffer is composed of 20 mM Hepes, pH 7.5, 2.5 mM KCl, 2.5 mM MgCl2, 1 mM DTT, 1.6 U RNAse inhibitor (Promega N2515), 0.01 mg/ml BSA (Sigma B6917), and 2% glycerol. All compounds were serially diluted (3-fold) in DMSO and diluted further in water such that the final concentration of DMSO in the assay was 2%. HCV RdRp genotype 1b enzyme was used at a final concentration of 28 nM. A polyA template was used at 6 nM, and a biotinylated oligo-dT12 primer was used at 180 nM final concentration. Template was obtained commercially (Amersham 27-4110). Biotinylated primer was prepared by Sigma Genosys. 3H-UTP was used at (0.29 μM total UTP). Reactions were initiated by the addition of enzyme, incubated at 30° C. for 60 min, and stopped by adding 25 μl of 50 mM EDTA containing SPA beads (4 μg/μl, Amersham RPNQ 0007). Plates were read on a Packard Top Count NXT after >1 hr incubation at room temperature.
Modified HCV NS5B RdRp enzyme assay. A modified enzyme assay was performed essentially as described for the standard enzyme assay except for the following: The biotinylated oligo dT12 primer was precaptured on streptavidin-coated SPA beads by mixing primer and beads in assay buffer and incubating at room temperature for one hour. Unbound primer was removed after centrifugation. The primer-bound beads were resuspended in 20 mM Hepes buffer, pH 7.5 and used in the assay at final concentrations of 20 nM primer and […] beads. Order of addition in the assay: enzyme (1.75 nM) was added to diluted compound followed by the addition of a mixture of template (0.36 nM), 3H-UTP (0.6 μCi, 0.29 μM), and primer-bound beads, to initiate the reaction; concentrations given are final. Reactions were allowed to proceed for 4 hours at 30° C.
IC50 values for compounds were determined using seven different [I]. […]

T1 sequence (Q9WMX2 2420-2992): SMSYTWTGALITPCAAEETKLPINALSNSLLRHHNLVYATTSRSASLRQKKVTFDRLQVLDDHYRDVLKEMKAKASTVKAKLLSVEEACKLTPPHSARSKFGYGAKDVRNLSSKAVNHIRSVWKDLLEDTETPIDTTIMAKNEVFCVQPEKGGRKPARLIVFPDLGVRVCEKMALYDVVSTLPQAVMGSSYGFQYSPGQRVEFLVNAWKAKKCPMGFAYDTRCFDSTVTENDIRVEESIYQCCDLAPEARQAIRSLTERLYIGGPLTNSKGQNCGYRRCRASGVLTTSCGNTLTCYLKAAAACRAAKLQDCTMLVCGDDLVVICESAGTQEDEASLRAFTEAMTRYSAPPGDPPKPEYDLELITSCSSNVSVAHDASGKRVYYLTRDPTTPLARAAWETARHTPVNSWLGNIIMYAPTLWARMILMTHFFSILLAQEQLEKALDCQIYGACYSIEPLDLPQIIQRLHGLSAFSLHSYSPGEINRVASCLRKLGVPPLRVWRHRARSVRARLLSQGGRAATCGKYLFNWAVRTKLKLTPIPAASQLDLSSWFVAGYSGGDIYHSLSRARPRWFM

SMILES	EC50 (HCV replicon cells; class symbols) [nM]	IC50 (HCV NS5B RdRp; class symbols) [nM]	EC50 (HCV replicon cells; numeric values) [nM]	IC50 (HCV NS5B RdRp; numeric values) [nM]
COc1ccc2c(c1)C1CC1(C(=O)N1CCC(n3cc(-c4ccc(Cl)cc4)cn3)CC1)Cn1c-2c(C2CCCCC2)c2ccc(C(=O)NS(=O)(=O)N(C)C)cc21 (stereo not drawn)	2 to 500	2 to 500		
COc1ccc2c(c1)[C@@H]1C[C@]1(C(=O)N1CCC(c3nnc(C)o3)CC1)Cn1c-2c(C2CCCCC2)c2ccc(C(=O)NS(=O)(=O)N(C)C)cc21			30	30
CCOC(=O)c1coc(C2CCN(C(=O)C34CC3c3cc(OC)ccc3-c3c(C5CCCCC5)c5ccc(C(=O)NS(=O)(=O)N(C)C)cc5n3C4)CC2)n1 (stereo not drawn)	2 to 500	2 to 500		
